In patent US7785875B2, “Polynucleotide encoding HCV epitopes which can bind to various HLA supertypes, immunogenic composition comprising same and method of inducing an HCV-specific immune response using same” (priority 2004, dated 2010):

System: PBMCs derived from HCV-infected patients
Assay: Ex vivo IFN-γ ELISPOT assay
Assay type: cell-based, human
Conditions: for responsiveness of positive reaction: positive = 30 or more SFCs per 2×10^5 PBMCs; for number of HLA types the epitope was positive to: of 9 HLA types found in the patients (A2, A24, A26, A3, B7, B15, B27, B44, B51)

Substance | responsiveness of positive reaction (HLA-A2 type patients) | responsiveness of positive reaction (HLA-A3 type patients) | responsiveness of positive reaction (HLA-A24 type patients) | responsiveness of positive reaction (HLA-A26 type patients) | Number of patients showing positive response/Number of patients having specific MHC type (HLA-A molecule A2) | Number of patients showing positive response/Number of patients having specific MHC type (HLA-A molecule A3) | Number of patients showing positive response/Number of patients having specific MHC type (HLA-A molecule A24) | Number of patients showing positive response/Number of patients having specific MHC type (HLA-A molecule A26) | responsiveness of positive reaction (HLA-B7 type patients) | responsiveness of positive reaction (HLA-B15 type patients) | responsiveness of positive reaction (HLA-B27 type patients) | responsiveness of positive reaction (HLA-B44 type patients) | responsiveness of positive reaction (HLA-B51 type patients) | Number of patients showing positive response/Number of patients having specific MHC type (HLA-B molecule B7) | Number of patients showing positive response/Number of patients having specific MHC type (HLA-B molecule B15) | Number of patients showing positive response/Number of patients having specific MHC type (HLA-B molecule B27) | Number of patients showing positive response/Number of patients having specific MHC type (HLA-B molecule B44) | Number of patients showing positive response/Number of patients having specific MHC type (HLA-B molecule B51) | number of HLA types the epitope was positive to
L2: HCV epitope peptide of 9 amino acids, E2, region 632 (YVGGVEHRL) [Peptide L2] | 15.3% | 13.3% | 12.5% | 0% | 4/26 | 4/30 | 3/24 | 0/1 | 5.8% | 22.2% | 25.0% | 11.1% | 20.0% | 1/17 | 2/9 | 1/4 | 1/9 | 2/10 | 8
L1: HCV epitope peptide of 9 amino acids, Core, region 118 (NLGKVIDTL) [Peptide L1] | 11.5% | 10.0% | 8.3% | 0% | 3/26 | 3/30 | 2/24 | 0/1 | 11.7% | 0% | 0% | 33.3% | 10.0% | 2/17 | 0/9 | 0/4 | 3/9 | 1/10 | 6
C4: HCV epitope peptide of 9 amino acids, NS2, region 894 (AILGPLMVF) [Peptide C4] | 26.3% | 23.5% | 29.1% | 0% | 7/26 | 7/30 | 7/24 | 0/1 | 29.1% | 44.4% | 0% | 22.2% | 50.0% | 5/17 | 4/9 | 0/4 | 2/9 | 5/10 | 7
L7: HCV epitope peptide of 9 amino acids, NS2, region 883 (ELIFDITKL) [Peptide L7] | 19.2% | 10.0% | 12.5% | 0% | 5/26 | 3/30 | 3/24 | 0/1 | 17.6% | 22.2% | 25.0% | 11.1% | 20.0% | 3/17 | 2/9 | 1/4 | 1/9 | 2/10 | 8
C1: HCV epitope peptide of 9 amino acids, NS3, region 1338 (TAGARLVVL) [Peptide C1] | 11.5% | 10.0% | 4.18% | 0% | 3/26 | 3/30 | 1/24 | 0/1 | 11.7% | 0% | 0% | 22.2% | 20.0% | 2/17 | 0/9 | 0/4 | 2/9 | 2/10 | 6
L6: HCV epitope peptide of 9 amino acids, E2, region 628 (KVRMYVGGV) [Peptide L6] | 15.3% | 10.0% | 8.3% | 0% | 4/26 | 3/30 | 2/24 | 0/1 | 11.7% | 11.1% | 0% | 11.1% | 30.0% | 2/17 | 1/9 | 0/4 | 1/9 | 3/10 | 7
